Source: patent US10106542B2, “Substituted 6,7-dihydropyrazolo[1,5-a]pyrazines as negative allosteric modulators of mGluR2 receptors” (Janssen Pharmaceutica NV, priority 2013, dated 2018)

Biological target: T1, human mGlu2 receptor (Homo sapiens, UniProt Q14416)
T1 construct: expressed in transfected cells; host or cells: CHO cells (membrane preparation)
Test: [35S]GTPγS binding assay (mGluR2 negative allosteric modulation)
Assay type: biochemical
Conditions: for IC50: membranes from CHO cells transfected with human mGlu2 receptor, glutamate 60 μM, pIC50 = −log IC50 (M), read-out: GTPγS - hmGluR2 anGT pIC50 (converted); for Emax / GTPγS - hmGluR2 anGT Emax: relative maximal effect: maximal % inhibition relative to the control glutamate response; for Emax: read-out: GTPγS - hmGluR2 anGT Emax
Description: 1) [^35S]GTPγS binding assay
The [^35S]GTPγS binding assay is a functional membrane-based assay used to study G-protein coupled receptor (GPCR) function whereby incorporation of a non-hydrolysable form of GTP, [^35S]GTPγS (guanosine 5′-triphosphate, labelled with […] ^35S), is measured. The G-protein a subunit catalyzes the exchange of guanosine 5′-diphosphate (GDP) by guanosine triphosphate (GTP) and on activation of the GPCR by an agonist, [^35S]GTPγS, becomes incorporated and cannot be cleaved to continue the exchange cycle (Harper (1998) Current Protocols in Pharmacology 2.6.1-10, John Wiley & Sons, Inc.). […] Here we describe the use of the [^35S]GTPγS binding assay using membranes from cells transfected with the human mGlu2 receptor and adapted from Schaffhauser et al. (Molecular Pharmacology, 2003, […]) for the detection of the negative allosteric modulation (NAM) properties of the compounds of this invention.
CHO-cells were cultured to pre-confluence and stimulated with 5 mM butyrate for 24 h. Cells were then collected by scraping in PBS and cell suspension was centrifuged (10 min at 4000 RPM in benchtop centrifuge). Supernatant was discarded and pellet gently resuspended in 50 mM Tris-HCl, pH 7.4 by mixing with an Ultra Turrax homogenizer. The suspension was centrifuged at 12,400 RPM (Sorvall F14S-6x250Y) for 10 minutes and the supernatant discarded. The pellet was homogenized in 5 mM Tris-HCl, pH 7.4 using an Ultra Turrax homogenizer and centrifuged again (13,000 RPM, 20 min, 4° C.). The final pellet was resuspended in 50 mM Tris-HCl, pH 7.4 and stored at −80° C. in appropriate aliquots before use. Protein concentration was determined by the Bradford method (Bio-Rad, USA) with bovine serum albumin as standard.
Measurement of mGluR2 negative allosteric modulatory activity of test compounds was performed as follows. Test compounds and glutamate were diluted in assay buffer containing 10 mM HEPES acid, 10 mM HEPES salt, pH 7.4, 100 mM NaCl, 3 mM MgCl2 and 10 μM GDP. Human mGlu2 receptor-containing membranes were thawed on ice and diluted in assay buffer supplemented with 18 μg/ml saponin. […] After addition of [^35S]GTPγS (f.c. 0.1 nM), assay mixtures were shaken briefly and further incubated to allow [^35S]GTPγS incorporation on activation (30 minutes, 30° C.). Final assay mixtures contained 7 μg of membrane protein in 10 mM HEPES acid, 10 mM HEPES salt, pH 7.4, 100 mM NaCl, 3 mM MgCl2, 10 μM GDP and 10 μg/ml saponin. Total reaction volume was 200 μl. Reactions were terminated by rapid filtration through Unifilter-96 GF/B plates (Perkin Elmer, Massachusetts, USA) using a 96-well filtermate universal harvester. Filters were washed 6 times with ice-cold 10 mM NaH2PO4/10 mM Na2HPO4, pH 7.4. Filters were then air-dried, and 30 μl of liquid scintillation cocktail (Microscint-O) was added to each well. Membrane-bound radioactivity was counted in a Topcount.
The concentration-response curves of representative compounds of the present invention were generated using the Lexis software interface (developed at J&J). Data were calculated as % of the control glutamate response, defined as the response that is generated upon addition of an EC80-equivalent concentration of glutamate.

T1 sequence (Q14416 19-872): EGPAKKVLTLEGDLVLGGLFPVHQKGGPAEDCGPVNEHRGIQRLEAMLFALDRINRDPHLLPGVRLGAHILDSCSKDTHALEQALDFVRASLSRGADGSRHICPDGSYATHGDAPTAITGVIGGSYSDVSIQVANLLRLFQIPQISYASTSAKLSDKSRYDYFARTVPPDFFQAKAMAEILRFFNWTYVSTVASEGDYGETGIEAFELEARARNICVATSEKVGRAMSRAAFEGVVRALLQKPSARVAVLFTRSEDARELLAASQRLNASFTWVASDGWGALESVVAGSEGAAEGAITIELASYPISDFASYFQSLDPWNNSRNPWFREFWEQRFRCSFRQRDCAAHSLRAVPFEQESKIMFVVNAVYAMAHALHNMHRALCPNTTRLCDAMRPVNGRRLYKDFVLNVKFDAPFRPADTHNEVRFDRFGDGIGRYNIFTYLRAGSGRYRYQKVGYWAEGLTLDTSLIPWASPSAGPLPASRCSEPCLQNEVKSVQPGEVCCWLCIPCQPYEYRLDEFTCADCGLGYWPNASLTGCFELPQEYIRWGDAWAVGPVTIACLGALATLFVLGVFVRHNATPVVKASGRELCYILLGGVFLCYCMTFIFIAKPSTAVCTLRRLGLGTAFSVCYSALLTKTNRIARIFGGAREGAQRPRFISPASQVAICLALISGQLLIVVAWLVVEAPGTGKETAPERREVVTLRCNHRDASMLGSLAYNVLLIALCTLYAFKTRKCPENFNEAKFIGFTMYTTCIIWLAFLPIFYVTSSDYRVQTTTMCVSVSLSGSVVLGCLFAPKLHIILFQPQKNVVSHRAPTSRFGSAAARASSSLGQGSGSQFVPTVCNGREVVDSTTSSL

Row | IC50 | Emax | GTPγS - hmGluR2 anGT Emax | SMILES
1 | 1.78e-08 M | 114% | – | C[C@H]1CN(c2ccc(C(F)(F)F)cc2)C(=O)c2c(-c3ccnc(N4CCCCC4)c3)cnn21 [compound 107]
2 | 7.76e-09 M | 100% | – | Cc1cc(-c2cnn3c2C(=O)N(c2ccc(C(F)(F)F)c(OCCF)c2)C[C@@H]3C)ccn1 [compound 48]
3 | 4.17e-09 M | 116% | – | C[C@H]1CN(c2ccc(C(F)(F)F)c(CF)c2)C(=O)c2c(-c3ccnc(N(C)C)c3)cnn21 [compound 246]
4 | 2.69e-09 M | 108% | – | CCCNc1cc(-c2cnn3c2C(=O)N(c2ccc(C(F)(F)F)c(Cl)c2)C[C@@H]3C)ccn1 [compound 264]
5 | 6.76e-09 M | 105% | – | Cc1cc(-c2cnn3c2C(=O)N(c2cc(Cl)c(Cl)cn2)C[C@@H]3C)ccn1 [compound 203]
6 | 2.95e-09 M | 107% | – | C[C@H]1CN(c2ccc(C(F)(F)F)c(Cl)c2)C(=O)c2c(-c3ccnc(N4CC(F)C4)c3)cnn21 [compound 92]
7 | 2.75e-07 M | 105% | – | CNc1cc(-c2cnn3c2C(=O)N(c2ccc(Cl)c(Cl)c2)CC3CF)ccn1 (single isomer, unassigned) [compound 184]
8 | 5.62e-08 M | 106% | – | Cc1cc(-c2cnn3c2C(=O)N(c2ccc(C4CC4)cc2)C[C@@H]3C)ccn1 [compound 156, (7S)-5-(4-Cyclopropylphenyl)-7-methyl-3-(2-methyl-4-pyridyl)-6,7-dihydropyrazolo[1,5-a]pyrazin-4-one]
9 | 4.79e-09 M | – | 112% | Cc1cc(-c2cnn3c2C(=O)N(c2ccc(Cl)c(Cl)c2)C[C@@H]3C)ccn1 [6a]
10 | 1e-06 M | 102% | – | Cc1cc(-c2cnn3c2C(=O)N(c2ccccc2)C[C@@H]3C)ccn1 [compound 86]
11 | 9.33e-09 M | 105% | – | C[C@H]1CN(c2ccc(C(F)(F)F)c(Cl)c2)C(=O)c2c(-c3ccnc(OCCF)c3)cnn21 [compound 177]
12 | 9.12e-08 M | 104% | – | Cc1cc(-c2cnn3c2C(=O)N(c2cc(Cl)c(C)cn2)C[C@@H]3C)ccn1 [compound 198]
13 | 6.17e-08 M | 102% | – | Cc1cc(-c2cnn3c2C(=O)N(c2ccc(C(C)(C)C)cc2)C[C@@H]3C)ccn1 [compound 141]
14 | 3.63e-08 M | 103% | – | CNc1cc(-c2cnn3c2C(=O)N(c2ccc(C(F)(F)F)c(C#N)c2)C[C@@H]3C)ccn1 [compound 179]
15 | 4.68e-09 M | 109% | – | CCCNc1cc(-c2cnn3c2C(=O)N(c2ccc(Cl)c(Cl)c2)C[C@@H]3C)ccn1 [compound 263]
16 | 6.76e-08 M | 105% | – | CC(C)Oc1cc(-c2cnn3c2C(=O)N(c2ccc(C(F)(F)F)cc2)C[C@@H]3C)ccn1 [compound 138]
17 | 2.51e-06 M | – | 100% | COCC1CN(c2ccc(Cl)c(Cl)c2)C(=O)c2c(-c3ccnc(C)c3)cnn21 (single isomer, unassigned) [compound 119]
18 | 4.17e-07 M | 103% | – | Cc1cc(-c2cnn3c2C(=O)N(c2ccc(C(F)(F)F)cc2)CC3C(F)F)ccn1 (stereo not drawn) [compound 181, 7-(Difluoromethyl)-3-(2-methyl-4-pyridyl)-5-[4-(trifluoromethyl)phenyl]-6,7-dihydropyrazolo[1,5-a]pyrazin-4-one]
19 | 1.78e-08 M | 105% | – | CCCNc1cc(-c2cnn3c2C(=O)N(c2ccc(C(F)(F)F)cc2)C[C@@H]3C)ccn1 [compound 259]
20 | 4.17e-08 M | 104% | – | COc1cc(-c2cnn3c2C(=O)N(c2ccc(Cl)cc2)C[C@@H]3C)ccn1 [compound 89]
21 | 1.91e-08 M | 103% | – | Cc1cc(-c2cnn3c2C(=O)N(c2cc(C)c(C(F)(F)F)cn2)C[C@@H]3C)ccn1 [compound 193]
22 | 1.95e-08 M | 105% | – | COCC1CN(c2ccc(Cl)c(Cl)c2)C(=O)c2c(-c3ccnc(C)c3)cnn21 (single isomer, unassigned) [compound 118]

Row | IC50 | Emax | GTPγS - hmGluR2 anGT Emax | SMILES
23 | 8.32e-09 M | 109% | – | C[C@H]1CN(c2ccc(C(F)(F)F)c(OCCF)c2)C(=O)c2c(-c3ccnc(N(C)C)c3)cnn21 [compound 249]
24 | 3.24e-09 M | 104% | – | CCc1cc(-c2cnn3c2C(=O)N(c2ccc(Cl)c(Cl)c2)C[C@@H]3C)ccn1 [compound 134]
25 | 1.82e-08 M | 105% | – | CNc1cc(-c2cnn3c2C(=O)N(c2ccc(Cl)c(Cl)c2)CC3CF)ccn1 (stereo not drawn) [compound 93]
26 | 7.08e-09 M | 108% | – | Cc1cc(-c2cnn3c2C(=O)N(c2ccc(Cl)c(Cl)c2)CC3CF)ccn1 (single isomer, unassigned) [compound 115]
27 | 2e-08 M | 104% | – | Cc1cc(-c2cnn3c2C(=O)N(c2ccc(C(F)(F)F)c(OC(C)C)c2)C[C@@H]3C)ccn1 [compound 154]
28 | 1.1e-08 M | 103% | – | Cc1cc(-c2cnn3c2C(=O)N(c2ccc(Cl)c(OC(F)F)c2)C[C@@H]3C)ccn1 [compound 163]
29 | 9.12e-08 M | 103% | – | Cc1cc(-c2cnn3c2C(=O)N(c2ccc(C(C)C(F)(F)F)cc2)C[C@@H]3C)ccn1 (stereo partly drawn) [compound 113]
30 | 3.55e-09 M | 105% | – | Cc1cc(N2C[C@H](C)n3ncc(-c4ccnc(N5CCC5)c4)c3C2=O)ccc1C(F)(F)F [compound 260]
31 | 4.79e-08 M | 104% | – | CCOc1ccc(N2C[C@H](C)n3ncc(-c4ccnc(C)c4)c3C2=O)cc1Cl [compound 17]
32 | 3.24e-07 M | 108% | – | Cc1cc(-c2cnn3c2C(=O)N(c2ccc(Cl)cn2)C[C@@H]3C)ccn1 [compound 187]
33 | 6.46e-09 M | 111% | – | Cc1cc(-c2cnn3c2C(=O)N(c2ccc(C(F)(F)F)c(CF)c2)C[C@@H]3C)ccn1 [compound 98]
34 | 3.39e-08 M | 105% | – | Cc1cc(-c2cnn3c2C(=O)N(c2cc(F)cc(Cl)c2)C[C@@H]3C)ccn1 [compound 63]
35 | 1.1e-08 M | 107% | – | CC(C)Nc1cc(-c2cnn3c2C(=O)N(c2ccc(Cl)c(Cl)c2)C[C@@H]3C)ccn1 [compound 261]
36 | 5.5e-08 M | 108% | – | C[C@H]1CN(c2ccc(C(F)(F)F)cc2)C(=O)c2c(-c3ccnc(N4CC(F)C4)c3)cnn21 [compound 94]
37 | 1.78e-08 M | 111% | – | COc1nc(N2C[C@H](C)n3ncc(-c4ccnc(C)c4)c3C2=O)ccc1Cl [compound 206]
38 | 6.03e-09 M | 108% | – | CCCNc1cc(-c2cnn3c2C(=O)N(c2ccc(C(F)(F)F)c(C)c2)C[C@@H]3C)ccn1 [compound 258]
39 | 5.01e-08 M | 107% | – | Cc1cc(-c2cnn3c2C(=O)N(c2ccc(Cl)c(C)n2)C[C@@H]3C)ccn1 [compound 196]
40 | 6.17e-09 M | 109% | – | CC(C)Nc1cc(-c2cnn3c2C(=O)N(c2ccc(C(F)(F)F)c(Cl)c2)C[C@@H]3C)ccn1 [compound 262]
41 | 4.47e-08 M | 106% | – | Cc1cc(-c2cnn3c2C(=O)N(c2ccc(C(C)C)cc2)C[C@@H]3C)ccn1 [compound 65]
42 | 6.17e-09 M | 111% | – | CCN(C)c1cc(-c2cnn3c2C(=O)N(c2ccc(C(F)(F)F)cc2)C[C@@H]3C)ccn1 [compound 253]
43 | 3.09e-06 M | 102% | – | Cc1cc(-c2cnn3c2C(=O)N(c2ccc4c(c2)OCCO4)C[C@@H]3C)ccn1 [compound 42]
44 | 6.46e-08 M | – | 106% | COCC1CN(c2ccc(C(F)(F)F)cc2)C(=O)c2c(-c3ccnc(C)c3)cnn21 (single isomer, unassigned) [compound 120]

Row | SMILES | IC50 | Emax | GTPγS - hmGluR2 anGT Emax
45 | Cc1cc(-c2cnn3c2C(=O)N(c2ccc(C#N)c(F)c2)C[C@@H]3C)ccn1 [compound 75] | 2.75e-07 M | 100% | –
